Converted amounts (≈) assume the structure as drawn. Read-outs that look alike come from different tables or passages of the source. Marks after values point to notes of the source that are not given here.
Tests used:
[1] = tested on: A/shenzhen/203/2001 (H3N2 subtype); test: microbe, parasite or virus in culture; type: cell-based, influenza A virus; settings: for SI (H3N2): CC50/IC50; for IC50: Influenza A virus, H3N2, MDCK, 72 h, read-out: IC50 (H3N2)
[2] = tested on: influenza A/PR/8/34 virus (H1N1 subtype); test: microbe, parasite or virus in culture; type: cell-based; settings: for SI (H1N1): CC50/IC50; for IC50: Influenza A virus, H1N1|PR/8, MDCK, 72 h, read-out: IC50 (H1N1)
Cytotoxicity assay = type: cell-based, canine; settings: dog, MDCK cells
[3] = tested on: Toll-like receptor 7 (TLR7) signaling pathway; type: in vivo, ICR mice
[4] = tested on: serum IFN-β, IL-6, TNF-α, IL-1β; type: in vivo, ICR mice; settings: after 5 days of treatment
influenza A virus (IAV) [5] = test: IAV-induced acute lung injury in mice; type: in vivo, ICR mice
influenza A virus (IAV) [6] = type: in vivo, ICR mice
[7] = 10 mg/kg intragastric once daily 5 days
[8] = 20 mg/kg intragastric once daily 5 days
[9] = 40 mg/kg intragastric once daily 5 days
[10] = 50 mg/kg intragastric once daily 5 days

Question: For C=C1CCC[C@]2(C)C[C@]3(O)OC(=O)C(C)=C3C[C@@H]12 [Atractylenolide III, atractylenolide III], which “SI (H3N2)” value [1] is on record?
Answer: Its value is 6.7.

Question: And the IC50 [1]?
Answer: The IC50 was 28.6 µg/mL (≈ 115 µM).

Question: And the “SI (H1N1)” value [2]?
Answer: The value was 7.8.

Question: What about the IC50 [2] of the same compound?
Answer: Its IC50 is 24.4 µg/mL (≈ 98.3 µM).

Question: And the CC50 at 3 days (Cytotoxicity assay)?
Answer: Its CC50 at 3 days is 191 µg/mL (≈ 770 µM).

Question: Which “mRNA expressions of TLR7, MyD88, TRAF6 and IFN-β in lung tissue” value ([3]; compared with model control group, P<0.01) does the source give for C=C1CCC[C@]2(C)Cc3occ(C)c3C[C@@H]12 [Atractylon, atractylon] here?
Answer: The value was “obviously upregulated”.

Question: And the “NF-κB p65 protein expression in lung tissue” value ([3]; mouse, in vivo)?
Answer: The value was “downregulated”.

Question: What about the “SI (H3N2)” value [1] of the same compound?
Answer: The value was 27.8.

Question: What about the IC50 [1] of the same compound?
Answer: The IC50 was 9.4 µg/mL (≈ 43.5 µM).

Question: And the “IFN-β (serum)” value ([4]; 10 mg/kg)?
Answer: The value was 25.8 ± 2.87 pg/mL.

Question: And the “IL-1β (serum)” value ([4]; 10 mg/kg)?
Answer: Its value is 17.2±1.35 ^b pg/ml.

Question: What about the “IL-6 (serum)” value ([4]; 10 mg/kg) of the same compound?
Answer: The value was 19.5±2.76 ^b pg/ml.

Question: And the “TNF-α (serum)” value ([4]; 10 mg/kg)?
Answer: The value was 16.2±2.27 ^a pg/ml.

Question: What about the “IFN-β (serum)” value ([4]; 20 mg/kg) of the same compound?
Answer: The value was 29.4±3.27 ^a pg/ml.

Question: And the “IL-1β (serum)” value ([4]; 20 mg/kg)?
Answer: The value was 16.5±1.17 ^b pg/ml.

Question: And the “IL-6 (serum)” value ([4]; 20 mg/kg)?
Answer: The value was 17.4±1.11 ^b pg/ml.

Question: And the “TNF-α (serum)” value ([4]; 20 mg/kg)?
Answer: Its value is 11.8±1.94 ^b pg/ml.

Question: And the “IFN-β (serum)” value ([4]; 40 mg/kg)?
Answer: Its value is 30.8±3.31 ^b pg/ml.

Question: What about the “IL-1β (serum)” value ([4]; 40 mg/kg) of the same compound?
Answer: Its value is 13.4±0.74 ^b pg/ml.

Question: What about the “IL-6 (serum)” value ([4]; 40 mg/kg) of the same compound?
Answer: The value was 12.8±1.16 ^b pg/ml.

Question: What about the “TNF-α (serum)” value ([4]; 40 mg/kg) of the same compound?
Answer: Its value is 9.20±0.77 ^b pg/ml.

Question: And the “SI (H1N1)” value [2]?
Answer: Its value is 29.4.

Question: And the “SI values relative to those of ribavirin” value ([2]; H1N1 and H3N2)?
Answer: Its value is “approximately 3 fold”.

Question: And the IC50 [2]?
Answer: The IC50 was 8.9 µg/mL (≈ 41.1 µM).

Question: And the “Inhibitory rate (lung index)” value (influenza A virus (IAV) [5]; [7])?
Answer: The value was 27.5%.

Question: What about the Lung index (influenza A virus (IAV) [5]; [7]) of the same compound?
Answer: The Lung index was 17.43±4.16 ^a mg/g.

Question: What about the “Viral load (lung)” value (influenza A virus (IAV) [5]; [7]) of the same compound?
Answer: Its value is 4.79±0.84 ^b ×10^6 copies.

Question: And the “Inhibitory rate (lung index)” value (influenza A virus (IAV) [5]; [8])?
Answer: Its value is 58.8%.

Question: And the Lung index (influenza A virus (IAV) [5]; [8])?
Answer: Its Lung index is 13.08±4.54 ^b mg/g.

Question: And the “Viral load (lung)” value (influenza A virus (IAV) [5]; [8])?
Answer: Its value is 2.56±0.72 ^b ×10^6 copies.

Question: And the “Inhibitory rate (lung index)” value (influenza A virus (IAV) [5]; [9])?
Answer: The value was 74.5%.

Question: What about the Lung index (influenza A virus (IAV) [5]; [9]) of the same compound?
Answer: Its Lung index is 10.90±3.76 ^b mg/g.

Question: What about the “Viral load (lung)” value (influenza A virus (IAV) [5]; [9]) of the same compound?
Answer: Its value is 0.36±0.15 ^b ×10^6 copies.

Question: And the “histological damage of lung” value (influenza A virus (IAV) [5]; 10–40 mg/kg, H&E staining)?
Answer: The value was “improved”.

Question: And the Life prolong rate (influenza A virus (IAV) [6]; [7])?
Answer: Its Life prolong rate is 17.7%.

Question: And the “MDD ± SD (mean day to death)” value (influenza A virus (IAV) [6]; [7])?
Answer: Its value is 9.3±3.6 ^a day.

Question: What about the Survival rate (influenza A virus (IAV) [6]; [7]) of the same compound?
Answer: Its Survival rate is 30.0%.

Question: And the Survived/total (influenza A virus (IAV) [6]; [7])?
Answer: The Survived/total was 6/20.

Question: What about the Life prolong rate (influenza A virus (IAV) [6]; [8]) of the same compound?
Answer: Its Life prolong rate is 41.8%.

Question: And the “MDD ± SD (mean day to death)” value (influenza A virus (IAV) [6]; [8])?
Answer: Its value is 11.2±3.3 ^a day.

Question: What about the Survival rate (influenza A virus (IAV) [6]; [8]) of the same compound?
Answer: Its Survival rate is 55.0%.

Question: And the Survived/total (influenza A virus (IAV) [6]; [8])?
Answer: Its Survived/total is 11/20.

Question: What about the Life prolong rate (influenza A virus (IAV) [6]; [9]) of the same compound?
Answer: Its Life prolong rate is 57.0%.

Question: What about the “MDD ± SD (mean day to death)” value (influenza A virus (IAV) [6]; [9]) of the same compound?
Answer: The value was 12.4±2.6 ^a day.

Question: What about the Survival rate (influenza A virus (IAV) [6]; [9]) of the same compound?
Answer: The Survival rate was 70.0%.

Question: What about the Survived/total (influenza A virus (IAV) [6]; [9]) of the same compound?
Answer: The Survived/total was 14/20.

Question: What about the CC50 at 3 days (Cytotoxicity assay) of the same compound?
Answer: Its CC50 at 3 days is 261 µg/mL (≈ 1210 µM).

Question: Which “SI (H3N2)” value [1] does the source give for NC(=O)c1ncn([C@@H]2O[C@H](CO)[C@@H](O)[C@H]2O)n1 [Ribavirin, reference compound] here?
Answer: Its value is 10.9.

Question: What about the IC50 [1] of the same compound?
Answer: Its IC50 is 10.7 µg/mL (≈ 43.8 µM).

Question: What about the “IFN-β (serum)” value ([4]; 50 mg/kg) of the same compound?
Answer: The value was 23.3 ± 2.79 pg/mL.

Question: What about the “IL-1β (serum)” value ([4]; 50 mg/kg) of the same compound?
Answer: Its value is 21.6 ± 3.36 pg/mL.

Question: What about the “IL-6 (serum)” value ([4]; 50 mg/kg) of the same compound?
Answer: The value was 18.5±5.99 ^b pg/ml.

Question: And the “TNF-α (serum)” value ([4]; 50 mg/kg)?
Answer: Its value is 13.4±1.54 ^b pg/ml.

Question: What about the “SI (H1N1)” value [2] of the same compound?
Answer: Its value is 8.2.

Question: What about the IC50 [2] of the same compound?
Answer: Its IC50 is 14.2 µg/mL (≈ 58.1 µM).

Question: What about the “Inhibitory rate (lung index)” value (influenza A virus (IAV) [5]; [10]) of the same compound?
Answer: Its value is 61.7%.

Question: And the Lung index (influenza A virus (IAV) [5]; [10])?
Answer: Its Lung index is 12.68±3.30 ^b mg/g.

Question: And the “Viral load (lung)” value (influenza A virus (IAV) [5]; [10])?
Answer: Its value is 1.38±0.56 ^b ×10^6 copies.

Question: What about the Life prolong rate (influenza A virus (IAV) [6]; [10]) of the same compound?
Answer: The Life prolong rate was 40.5%.

Question: What about the “MDD ± SD (mean day to death)” value (influenza A virus (IAV) [6]; [10]) of the same compound?
Answer: Its value is 11.1±3.1 ^a day.

Question: What about the Survival rate (influenza A virus (IAV) [6]; [10]) of the same compound?
Answer: The Survival rate was 50.0%.

Question: What about the Survived/total (influenza A virus (IAV) [6]; [10]) of the same compound?
Answer: Its Survived/total is 10/20.

Question: What about the CC50 at 3 days (Cytotoxicity assay) of the same compound?
Answer: Its CC50 at 3 days is 116 µg/mL (≈ 476 µM).

From PMC5042776 (Molecular Medicine Reports, 2016)
